# Measurements from EP1285920A1, “C10 Ester sustituted taxanes as antitumor agents” (Florida State University Research Foundation, Inc., priority 2001, dated 2003).
# Read-outs that look alike come from different tables or passages of the source.
# Legend:
# [1] = test system: A375 melanoma
# Procedure: Dosing was initiated on Day 1. […] Taxotere was given i.v. on a qd x 1 schedule at a dose of 70 mg/kg. […] The study was terminated on Day 60. Treatment groups are detailed in Table 9.
# [2] = test system: VM46 colon carcinoma; conditions: for Toxic Deaths / Complete Response / Partial Response / Stable Disease / Survivors: number of mice; for Complete Response / Partial Response / Stable Disease / Survivors: Day 64
# Procedure: Dosing was initiated on Day 1. […] Taxotere was given i.v. at a dose of 70 mg/kg on a qd x 1 schedule.
# [3] = test system: HCT116; assay: In Vitro cytotoxicity measured by the cell colony formation assay; assay type: cell-based, human; conditions: Homo sapiens, HCT-116; read-out: IN VITRO ID 50 HCT116
# Summary of the method: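 Four hundred cells per dish in McCoy's 5a medium with 10% FBS were allowed to attach for 5 h at 37 °C. They were then exposed to compound for 72 h at 37 °C, added as a 10× stock made fresh in medium. After HBSS rinsing and refeeding, colonies were counted after 7 days.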
# [4] = test system: A2780 ovarian carcinoma
# Procedure: Dosing was initiated on Day 1. […] Taxotere was given i.v. on a qd x 1 schedule at a dose of 70 mg/kg. […] The study was terminated on Day 60. Treatment groups are detailed in Table 7.
# [5] = test system: HCT116 carcinoma
# Procedure: Antitumor compounds were formulated for an i.v. dosing regime and were prepared in the following vehicle: 5% ethanol, 5% Cremophor and 90% isotonic saline.
# The antitumor compounds were given intravenously in a single maximum tolerated dose (MTD) appropriate for each compound. […] The MTDs for the antitumor compounds were calculated from earlier single dose data for mice receiving i.v. administration of these compounds. All vehicle control animals in the split dosing regimes were dosed twice intravenously with half of the total volume being given separated by one hour. The study was terminated on Day 60.
# A complete response is obtained if the tumor is not palpable at the end of the study.
# [6] = test system: MX-1 carcinoma
# Procedure: Thirteen antitumor compounds were formulated for an i.v. dosing regime (single i.v. bolus, qd x 1 schedule) prepared in the following vehicle: 5% ethanol, 5% Cremophor and 90% isotonic saline.
# The antitumor compounds were given intravenously in a single maximum tolerated dose (MTD) appropriate for each compound. […] The MTDs for the antitumor compounds were calculated from earlier single dose data for mice receiving i.v. administration of these compounds. All vehicle control animals in the split dosing regimes were dosed twice intravenously with half the total volume being given separated by one hour. The study was terminated on Day 60.
# A complete response is obtained if the tumor is not palpable at the end of the study. […]
# [7] = number of mice, i.v. qd x 1 at estimated MTD (Taxol 24 mg/kg, Taxotere 70 mg/kg), 6 mice/group (Taxotere 7), Day 60
# [8] = i.v. qd x 1, mg/kg: Taxol 24, 0499 77, 0503 72.6, 0670 123.1, 0706 107.6, 0838 72.6, 0854 46.6, 0983 67.4, Taxotere 70, 6 mice/group
# [9] = number of mice, i.v. qd x 1 at estimated MTD (Taxol 24 mg/kg, Taxotere 70 mg/kg, 0983 72.6 mg/kg), 5 mice/group (Taxotere 6)
# [10] = number of mice, i.v. qd x 1 at estimated MTD (Taxol 24 mg/kg, Taxotere 70 mg/kg, 0983 72.6 mg/kg), 5 mice/group (Taxotere 6), Day 60
compound,measurement,setting,value
"CC(=O)O[C@@]12CO[C@@H]1C[C@H](O)[C@@]1(C)C(=O)[C@H](O)C3=C(C)[C@@H](OC(=O)[C@H](O)[C@@H](NC(=O)OC(C)(C)C)c4ccccc4)C[C@@](O)([C@@H](OC(=O)c4ccccc4)[C@H]21)C3(C)C [Taxotere, docetaxel, reference compound]",survival extension compared to Group 1 controls,"[1]; A375, i.v. qd x 1",49%
same,MDS,"[1]; A375, i.v. qd x 1 (Taxol 24 mg/kg split; Taxotere 70 mg/kg), days until tumor 2.0 g, ended Day 60",21.5 days
same,MDS (n),"[1]; mean days of survival until neoplasm reached 2.0 g, i.v. qd x 1 at estimated MTD (Taxol 24 mg/kg, Taxotere 70 mg/kg), 6 mice/group (Taxotere 7), terminated Day 60",21.5 ± 0.5 (7) days
same,Toxic Deaths,"[1]; number of mice, i.v. qd x 1 at estimated MTD (Taxol 24 mg/kg, Taxotere 70 mg/kg), 6 mice/group (Taxotere 7)",0
same,Complete Response,[1]; [7],0
same,Partial Response,[1]; [7],0
same,Stable Disease,[1]; [7],0
same,Survivors,[1]; [7],0
same,Mean Score,"[1]; tumor scoring system, i.v. qd x 1 at estimated MTD (Taxol 24 mg/kg, Taxotere 70 mg/kg), 6 mice/group (Taxotere 7)",2 ± 0
same,MDS,"[2]; VM46, i.v. qd x 1 (Taxol 24 mg/kg split; Taxotere 70 mg/kg), days until tumor 1.5 g",45.3 days
same,MDS (n),"[2]; mean days of survival until neoplasm reached 1.5 g, i.v. qd x 1, mg/kg: Taxol 24, 0499 77, 0503 72.6, 0670 123.1, 0706 107.6, 0838 72.6, 0854 46.6, 0983 67.4, Taxotere 70, 6 mice/group, terminated Day 64",45.3 ± 3.6 (6) days
same,Toxic Deaths,[2]; [8],0
same,Complete Response,[2]; [8],0
same,Partial Response,[2]; [8],0
same,Stable Disease,[2]; [8],0
same,Survivors,[2]; [8],0
same,Mean Score,"[2]; tumor scoring system, i.v. qd x 1, mg/kg: Taxol 24, 0499 77, 0503 72.6, 0670 123.1, 0706 107.6, 0838 72.6, 0854 46.6, 0983 67.4, Taxotere 70, 6 mice/group",2 ± 0
same,IC50,[3],0.6 nM
same,antitumor activity,"[4]; A2780, i.v. qd x 1",more active than Taxol
same,survival extension compared to Group 1 controls,"[4]; A2780, i.v. qd x 1",134%
same,MDS,"[4]; A2780, i.v. qd x 1 (compounds estimated MTD; Taxol 24 mg/kg split; Taxotere 70 mg/kg), days until tumor 2.0 g, ended Day 60",27.4 days
same,MDS (n),"[4]; mean days of survival until neoplasm reached 2.0 g, i.v. qd x 1 at estimated MTD (Taxol 24 mg/kg, Taxotere 70 mg/kg, 0983 72.6 mg/kg), 5 mice/group (Taxotere 6), terminated Day 60",27.4 ± 3.5 (6) days
same,Toxic Deaths,[4]; [9],0
same,Complete Response,[4]; [10],0
same,Partial Respons,[4]; [10],0
same,Stable Disease,[4]; [10],0
same,Survivors,[4]; [10],0
same,Mean Score,"[4]; tumor scoring system, i.v. qd x 1 at estimated MTD (Taxol 24 mg/kg, Taxotere 70 mg/kg, 0983 72.6 mg/kg), 5 mice/group (Taxotere 6)",2.5 ± 0.3
CCCC(=O)O[C@H]1C(=O)[C@@]2(C)[C@H]([C@H](OC(=O)c3ccccc3)[C@]3(O)C[C@H](OC(=O)[C@H](O)[C@@H](NC(=O)OC(C)(C)C)c4ccco4)C(C)=C1C3(C)C)[C@]1(OC(C)=O)CO[C@@H]1C[C@@H]2O [Compound 0983],group mean weight losses,"[5]; HCT116, single i.v. MTD, Days 6-10",over 20%
same,Partial Response,[5]; iv,1
same,Complete Response,"[5]; iv, 1440 h",2
same,Mean Score,"[5]; iv, 1440 h",5.8 ± 2.4
same,Stable Disease,"[5]; iv, 1440 h",0
same,Survivors,"[5]; number of 5 mice, i.v. qd x 1 at MTD, Day 60, doses as in E3",3
same,Toxic Deaths,"[5]; number of 5 mice, i.v. qd x 1 at MTD, Day 60, mg/kg: Taxol 36 (split doses), 0503 72.6, 0536 49, 0663 159, 0670 123, 0687 159, 0706 108, 0908 159, 0947 76.9, 0951 72.6, 0983 72.6, 0999 49, 1003 49, 1011 108",2
same,response rate,"[2]; VM46, i.v. qd x 1 at estimated MTD",0%
same,Mean Score,[2]; iv,1.7 ± 0.8
same,MDS (n),"[2]; iv, 1536 h",56.0 ± 6.8 (2) days
same,Toxic Deaths,[2]; [8],3
same,Complete Response,[2]; [8],0
same,Partial Response,[2]; [8],0
same,Stable Disease,[2]; [8],1
same,Survivors,[2]; [8],1
same,IC50,[3],< 1 nM
same,Mean Score,"[4]; iv, 72.6 mg/kg",0 ± 0
same,Complete Response,"[4]; iv, 72.6 mg/kg, 1440 h",0
same,Partial Respons,"[4]; iv, 72.6 mg/kg, 1440 h",0
same,Stable Disease,"[4]; iv, 72.6 mg/kg, 1440 h",0
same,Toxic Deaths,[4]; [9],5
same,Survivors,[4]; [10],0
same,Partial Response,[6]; iv,0
same,Complete Response,"[6]; iv, 1440 h",6
same,Mean Score,"[6]; iv, 1440 h",10 ± 0
same,Stable Disease,"[6]; iv, 1440 h",0
same,Survivors,"[6]; number of 6 mice, i.v. qd x 1 at MTD, Day 60, doses as in E17",6
same,Toxic Deaths,"[6]; number of 6 mice, i.v. qd x 1 at MTD, Day 60, mg/kg: Taxol 36 (split dose), 0503 72.6, 0536 49, 0663 159, 0670 123, 0687 159, 0706 108, 0908 159, 0947 76.9, 0951 72.6, 0983 67.4, 0999 49, 1003 49, 1011 108",0
